Source: patent publication US11524960B2, “Heterobicyclic inhibitors of MAT2A and methods of use for treating cancer” (AGIOS PHARMACEUTICALS, INC., priority 2018, dated 2022)

Target: T1, MAT2A homodimer (Homo sapiens, UniProt P31153)
T1 construct: inferred from Ni sepharose purification and imidazole elution; made in house; host or cells: Sf9 insect cells, recombinant baculovirus (Bac to Bac, pFASTBAC1)
Test: Biochemical assay: inhibition of MAT2A (phosphate release, PiColorLock Gold)
Conditions: MAT2A IC50 score; read-out: Enzyme Inhibition (Example 275)
Protocol: Mat2A protein was expressed by recombinant baculovirus in SF9 infected cells using the Bac to Bac system cloned into the pFASTBAC1 vector (Invitrogen, Carlsbad, Calif.). Recombinant MAT2A was isolated from the cell lysate of 150 g of infected cells using HP Ni sepharose column chromatography. Recombinant MAT2A homodimer was eluted with 250 and 500 mM imidazole, and fractions containing MAT2A were identified by sodium dodecyl sulfate polyacrylamide gel electrophoresis and pooled.
For determination of the inhibitory potency of compounds against the MAT2A homodimer, protein was diluted to […] in assay buffer (50 mM Tris, pH 8.0, 50 mM KCl, 15 mM MgCl2, 0.3 mM EDTA, 0.005% [w/v] bovine serum albumin [BSA]). Test compound was prepared in 100% dimethyl sulfoxide (DMSO) at 50× the desired final concentration. […] of compound dilution was added to 40 μL of enzyme dilution and the mixture was allowed to equilibrate for 60 minutes at 25° C. The enzymatic assay was initiated by the addition of 10 μL of substrate mix (500 μM ATP, pH 7.0, 400 μM L-methionine in 1× assay buffer), and the mixture was incubated for a further 60 minutes at 25° C. The reaction was halted and the liberated phosphate released by the enzyme in stoichiometric amounts by the production of S-adenosyl methionine (SAM) was measured using the PiColorLock Gold kit (Innova Biosciences, UK). Absolute product amounts were determined by comparison to a standard curve of potassium phosphate buffer, pH 8.0.

T1 sequence (P31153 whole entry): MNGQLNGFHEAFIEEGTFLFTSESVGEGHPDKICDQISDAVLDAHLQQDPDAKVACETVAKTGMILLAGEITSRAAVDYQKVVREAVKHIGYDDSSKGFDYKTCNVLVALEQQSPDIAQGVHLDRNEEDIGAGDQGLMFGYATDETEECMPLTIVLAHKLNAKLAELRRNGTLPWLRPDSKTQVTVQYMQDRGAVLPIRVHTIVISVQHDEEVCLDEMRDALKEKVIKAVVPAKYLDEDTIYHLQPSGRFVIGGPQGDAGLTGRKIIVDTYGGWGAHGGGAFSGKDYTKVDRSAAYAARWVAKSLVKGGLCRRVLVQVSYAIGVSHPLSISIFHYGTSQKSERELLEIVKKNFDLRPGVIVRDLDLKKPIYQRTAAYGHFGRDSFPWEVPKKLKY

Row | Compound | IC50
1 | COc1ccc(N2Cc3cnc(NCC4CC4)nc3C3(CCN(Cc4cc[nH]n4)C3)C2=O)cc1 (stereo not shown) [Example 101, 1′-((1H-pyrazol-3-yl)methyl)-2-((cyclopropylmethyl)amino)-6-(4-methoxyphenyl)-5H-spiro[pyrido[4,3-d]pyrimidine-8,3′-pyrrolidin]-7(6H)-one] | 100 to 1000 nM
2 | COc1ccc(N2Cc3cnc(NCC4CC4)nc3C3(CCN(Cc4cn[nH]c4)C3)C2=O)cc1 (stereo not shown) [Example 102, 1′-((1H-pyrazol-4-yl)methyl)-2-((cyclopropylmethyl)amino)-6-(4-methoxyphenyl)-5H-spiro[pyrido[4,3-d]pyrimidine-8,3′-pyrrolidin]-7(6H)-one] | 1000 to 10000 nM
3 | COc1ccc(N2Cc3cnc(NCC4CC4)nc3C3(CCN(Cc4cscn4)C3)C2=O)cc1 (stereo not shown) [Example 103, 2-((cyclopropylmethyl)amino)-6-(4-methoxyphenyl)-1′-(thiazol-4-ylmethyl)-5H-spiro[pyrido[4,3-d]pyrimidine-8,3′-pyrrolidin]-7(6H)-one] | 100 to 1000 nM
4 | COc1ccc(N2Cc3cnc(NCC4CC4)nc3C3(CCN(C4CCCCC4)C3)C2=O)cc1 (stereo not shown) [Example 104, 1′-cyclohexyl-2-((cyclopropylmethyl)amino)-6-(4-methoxyphenyl)-5H-spiro[pyrido[4,3-d]pyrimidine-8,3′-pyrrolidin]-7(6H)-one] | 1000 to 10000 nM
5 | COC(=O)C1CC(N2CCC3(C2)C(=O)N(c2ccc(OC)cc2)Cc2cnc(NCC4CC4)nc23)C1 (stereo not shown) [Example 105, methyl 3-(2-((cyclopropylmethyl)amino)-6-(4-methoxyphenyl)-7-oxo-6,7-dihydro-5H-spiro[pyrido[4,3-d]pyrimidine-8,3′-pyrrolidin]-1′-yl)cyclobutanecarboxylate] | 1000 to 10000 nM
6 | O=C1N(c2cnoc2)Cc2cnc(NCC3CC3)nc2C12CCN(Cc1ccon1)C2 (stereo not shown) [Example 106, 2-((cyclopropylmethyl)amino)-1′-(isoxazol-3-ylmethyl)-6-(isoxazol-4-yl)-5H-spiro[pyrido[4,3-d]pyrimidine-8,3′-pyrrolidin]-7(6H)-one] | 1000 to 10000 nM
7 | O=C1N(c2cnoc2)Cc2cnc(NCC3CC3)nc2C12CCN(Cc1cscn1)C2 (stereo not shown) [Example 107, 2-((cyclopropylmethyl)amino)-6-(isoxazol-4-yl)-1′-(thiazol-4-ylmethyl)-5H-spiro[pyrido[4,3-d]pyrimidine-8,3′-pyrrolidin]-7(6H)-one] | 1000 to 10000 nM
8 | O=C1N(c2cnoc2)Cc2cnc(NCC3CC3)nc2C12CCN(Cc1n[nH]cc1Cl)C2 (stereo not shown) [Example 108, 1′-((4-chloro-1H-pyrazol-3-yl)methyl)-2-((cyclopropylmethyl)amino)-6-(isoxazol-4-yl)-5H-spiro[pyrido[4,3-d]pyrimidine-8,3′-pyrrolidin]-7(6H)-one] | 1000 to 10000 nM
9 | O=C1N(c2ccc3nc[nH]c3c2)Cc2cnc(NCC3CC3)nc2C12CCN(Cc1cc[nH]n1)C2 (stereo not shown) [Example 109, 1′-((H-pyrazol-3-yl)methyl)-6-(1H-benzo[d]imidazol-6-yl)-2-((cyclopropylmethyl)amino)-5H-spiro[pyrido[4,3-d]pyrimidine-8,3′-pyrrolidin]-7(6H)-one] | 100 to 1000 nM
10 | COc1ccc(N2Cc3cnc(NCC(F)(F)F)nc3C3(CCN(Cc4cc[nH]n4)C3)C2=O)cc1 (stereo not shown) [Example 110] | 100 to 1000 nM
11 | CCNc1ncc2c(n1)C1(CCN(Cc3cc[nH]n3)C1)C(=O)N(c1ccc(OC)cc1)C2 (stereo not shown) [Example 111, 1′-((1H-pyrazol-3-yl)methyl)-2-(ethylamino)-6-(4-methoxyphenyl)-5H-spiro[pyrido[4,3-d]pyrimidine-8,3′-pyrrolidin]-7(6H)-one] | 1000 to 10000 nM
12 | COc1ccc(N2Cc3cnc(NC4CCC4)nc3C3(CCN(Cc4cc[nH]n4)C3)C2=O)cc1 (stereo not shown) [Example 112, 1′-((1H-pyrazol-3-yl)methyl)-2-(cyclobutylamino)-6-(4-methoxyphenyl)-5H-spiro[pyrido[4,3-d]pyrimidine-8,3′-pyrrolidin]-7(6H)-one] | 100 to 1000 nM
13 | COc1ccc(N2Cc3cnc(NCC(C)C)nc3C3(CCN(Cc4cc[nH]n4)C3)C2=O)cc1 (stereo not shown) [Example 113, 1′-((1H-pyrazol-3-yl)methyl)-2-(isobutylamino)-6-(4-methoxyphenyl)-5H-spiro[pyrido[4,3-d]pyrimidine-8,3′-pyrrolidin]-7(6H)-one] | 100 to 1000 nM
14 | COc1ccc(N2Cc3cnc(OCC4CC4)nc3C3(CCN(Cc4ccn[nH]4)C3)C2=O)cc1 (stereo not shown) [Example 114, 1′-((1H-pyrazol-3-yl)methyl)-2-(cyclopropylmethoxy)-6-(4-methoxyphenyl)-5H-spiro[pyrido[4,3-d]pyrimidine-8,3′-pyrrolidin]-7(6H)-one] | 100 to 1000 nM
15 | COc1ccc(N2Cc3cnc(SCC4CC4)nc3C3(CCN(Cc4cc[nH]n4)C3)C2=O)cc1 (stereo not shown) [Example 115, 1′-((1H-pyrazol-3-yl)methyl)-2-((cyclopropylmethyl)thio)-6-(4-methoxyphenyl)-5H-spiro[pyrido[4,3-d]pyrimidine-8,3′-pyrrolidin]-7(6H)-one] | 100 to 1000 nM
16 | COc1ccc(N2Cc3cnc(NCC(F)(F)F)nc3C3(CCC(O)CC3)C2=O)cc1 (stereo not shown) [Example 116, 4-hydroxy-6′-(4-methoxyphenyl)-2′-((2,2,2-trifluoroethyl)amino)-5′H-spiro[cyclohexane-1,8′-pyrido[4,3-d]pyrimidin]-7′(6′H)-one] | 1000 to 10000 nM
17 | COc1ccc(N2Cc3cnc(NCC(F)(F)F)nc3C3(CCN(c4nnc(N)s4)CC3)C2=O)cc1 [Example 117, 1-(5-amino-1,3,4-thiadiazol-2-yl)-6′-(4-methoxyphenyl)-2′-((2,2,2-trifluoroethyl)amino)-5′H-spiro[piperidine-4,8′-pyrido[4,3-d]pyrimidin]-7′(6′H)-one] | 1000 to 10000 nM
18 | COc1ccc(CN2Cc3cnc(NCC4CC4)nc3C3(CCN(Cc4ccccc4)C3)C2=O)cc1 (stereo not shown) [Example 118, 1′-benzyl-2-((cyclopropylmethyl)amino)-6-(4-methoxybenzyl)-5,6-dihydro-7H-spiro[pyrido[4,3-d]pyrimidine-8,3′-pyrrolidin]-7-one] | 1000 to 10000 nM
19 | COc1cc(CN2Cc3cnc(NCC4CC4)nc3C3(CCN(Cc4ccccc4F)C3)C2=O)ccn1 (stereo not shown) [Example 119, 2-((cyclopropylmethyl)amino)-1′-(2-fluorobenzyl)-6-((2-methoxypyridin-4-yl)methyl)-5,6-dihydro-7H-spiro[pyrido[4,3-d]pyrimidine-8,3′-pyrrolidin]-7-one] | 1000 to 10000 nM
20 | O=C1N(Cc2ccn[nH]2)Cc2cnc(NCC3CC3)nc2C12CCN(Cc1ccccc1F)C2 (stereo not shown) [Example 120, 6-((1H-pyrazol-5-yl)methyl)-2-((cyclopropylmethyl)amino)-1′-(2-fluorobenzyl)-5,6-dihydro-7H-spiro[pyrido[4,3-d]pyrimidine-8,3′-pyrrolidin]-7-one] | 1000 to 10000 nM
21 | O=C1N(c2cnoc2)Cc2cnc(NCC3CC3)nc2C12CCN(Cc1ccccc1F)C2 (stereo not shown) [Example 121, 2-((cyclopropylmethyl)amino)-1′-(2-fluorobenzyl)-6-(isoxazol-4-yl)-5,6-dihydro-7H-spiro[pyrido[4,3-d]pyrimidine-8,3′-pyrrolidin]-7-one] | 100 to 1000 nM
22 | O=C1N(c2cn[nH]c2)Cc2cnc(NCC3CC3)nc2C12CCN(Cc1ccccc1F)C2 (stereo not shown) [Example 122, 2-((cyclopropylmethyl)amino)-1′-(2-fluorobenzyl)-6-(1H-pyrazol-4-yl)-5,6-dihydro-7H-spiro[pyrido[4,3-d]pyrimidine-8,3′-pyrrolidin]-7-one] | 100 to 1000 nM
